Assay results published in ChEMBL document CHEMBL3400055, “(+)- and (-)-liriodenol, a pair of novel enantiomeric lignans from Liriodendron hybrid” (Bioorg Med Chem Lett, 2015).
Values after ≈ are worked out from the molar mass of the structure shown.

Assays:
Format in all cases: functional, cell-based
MDA-MB-231 = experiment: Cytotoxic activity against human MDA-MB-231 cells after 48 hrs by MTT assay; conditions: MDA-MB-231, 48 h
[1] = Cytotoxic activity against human SGC7901 cells after 48 hrs by MTT assay; conditions: SGC-7901, 48 h
NCI-H460 = experiment: Cytotoxic activity against human NCI-H460 cells after 48 hrs by MTT assay; conditions: NCI-H460, 48 h
[2] = Cytotoxic activity against human BGC823 cells after 48 hrs by MTT assay; conditions: BGC-823, 48 h

`C=C(C(=O)c1cc(OC)c(O)c(OC)c1)C(CO)C(=O)c1cc(OC)c(O)c(OC)c1` (racemic) showed an IC50 (MDA-MB-231) of 51.4 µg/mL (≈ 119 µM), an IC50 [1] of 67.5 µg/mL (≈ 156 µM) and an IC50 (NCI-H460) of 58.1 µg/mL (≈ 134 µM). It also gave an IC50 [2] of 58.9 µg/mL (≈ 136 µM).
Work on `C=C(C(=O)c1cc(OC)c(O)c(OC)c1)[C@H](CO)C(=O)c1cc(OC)c(O)c(OC)c1` yielded an IC50 (MDA-MB-231) of 53.3 µg/mL (≈ 123 µM), an IC50 [1] greater than 100 µg/mL and an IC50 (NCI-H460) of 63.4 µg/mL (≈ 147 µM). For the same compound, the IC50 [2] was greater than 100 µg/mL.
With `C=C(C(=O)c1cc(OC)c(O)c(OC)c1)[C@@H](CO)C(=O)c1cc(OC)c(O)c(OC)c1` the IC50 (MDA-MB-231) was 28.7 µg/mL (≈ 66.3 µM), the IC50 [1] was 34.5 µg/mL (≈ 79.7 µM) and the IC50 (NCI-H460) was 31.4 µg/mL (≈ 72.7 µM). The IC50 [2] was 45.5 µg/mL (≈ 105 µM).
